Source: patent US9719981B2, “RAC1 inhibitors for the treatment of alport glomerular disease” (Father Flanagan's Boys' Home, priority 2012, dated 2017)
Read-outs that look alike come from different tables or passages of the source.

Key:
[1] = system: 129 Sv/J autosomal Alport mice; assay type: in vivo
Protocol: Immunofluorescence microscopy. Fresh frozen kidneys were sectioned at 8-μm and acetone fixed. Sections were incubated overnight at 4° C. in primary antibody solution. The dual stain consisting of rat anti-mouse Laminin-α2 antibody (Sigma-Aldrich, St. Louis, Mo.) at 1:200 and rabbit anti-mouse phospho-FAK 397 antibody at 1:25 as well as the dual stain of goat anti-mouse Integrin α8 antibody (R & D Systems, Minneapolis, Minn.) at 1:1000 and rabbit anti-mouse Laminin-5 antibody, at 1:1000 were diluted in 0.3% PBST+5% FBS. Rabbit anti-mouse Fibronectin antibody at 1:300 and rat anti-mouse CD11b antibody at 1:100 were diluted in 7% Milk. Slides were rinsed with 1×PBS and incubated with the appropriate Alexa Fluor donkey secondary antibodies at 1:300 for 1 hour at room temperature. They were then rinsed again with 1×PBS and mounted with Vectashield Mounting Medium with DAPI (Vector, Burlingame, Calif.). The dual stain of mouse-anti rat Laminin α1 antibody at 1:300 and rabbit anti-mouse phospho-FAK 397 antibody at 1:25 were diluted in 0.3% PBST+5% NGS and incubated overnight at 4° C. Slides were rinsed with 1×PBS and incubated with the appropriate Alexa Fluor goat secondary antibodies at 1:300 for 1 hour at room temperature. They were then rinsed again with 1×PBS and mounted with Vectashield Mounting Medium with DAPI.
(§1) Real time qRT-PCR. Total RNA was reverse transcribed using […]® III (Invitrogen, Life Technologies, Grand Island, N.Y.) with Oligo(dT)20 Primer (Invitrogen). The real time PCR was carried out using TAQMAN® Gene Expression Master Mix (Applied Biosystems, Life Technologies, Grand Island, N.Y.), and quantified using STEPONEPLUS™ Real-Time PCR System (Applied Biosystems). Samples were normalized to Mouse GAPDH Endogenous Control VIC® Probe (Applied Biosystems catalogue #4352339E) which was run alongside MMP-9 (Catalog #4331182, ID# Mm00442991_m1), MMP-10 (Catalog #4331182, ID# Mm00444630_m1), MMP-12 (Catalog #4331182, ID# Mm00500554_m1), IL-6 (Catalog #4331182, ID# Mm00446190_m1), NFKbia (Catalog #4331182, ID# Mm00477798_m1), and FAK (Catalog #4331182, ID# Mm00433209_m1) TAQMAN® Gene Expression Assay Probes (Applied Biosystems). Samples were run in triplicate with a final reaction volume of 20 ul with the following cycling parameters: 50° C. for 2 min, 95° C. for 10 min, followed by 40 cycles of a two-step PCR consisting of 95° C. for 15 s and 60° C. for 1 min. Relative changes in gene expression were determined by calculating the fold change using the comparative CT method of 2^−ΔΔCT. Data are expressed as the mean with standard deviation for at least four independent RNA samples per data point.
Treatment of mice with TAE226. Four Col 4A3 knockout mice from 129 Sv/J background were given 50 mg/Kg TAE226 (ChemScene, LLC Monmouth Junction, N.J.) 1× daily by gavage needle starting at two weeks of age until seven weeks old. The TAE226 was diluted in a 0.5% carboxy methyl cellulose suspension. Three control Col 4a3 knockout mice of the same age were given 0.5% CMC suspension alone and served as controls.
Albumin and creatinine assays. Urine was collected weekly and albumin concentrations were analyzed as instructed using a mouse albumin ELISA kit #MSAKT from Molecular Innovations (Novi, Mich.). Albumin levels were normalized to creatinine using QuantiChrom Creatinine Assay Kit (DICT-500) (BioAssay Systems, Hayward, Calif.) as instructed.
Transmission electron microscopy. Transmission electron microscopy was performed as described previously (Cosgrove et al., 2000, Am J Pathol; 157: 1649-1659).

cultured podocytes = test: Real time qRT-PCR for MMP transcripts in cultured podocytes, static and stretched; assay type: cell-based, mouse; settings: relative to untreated cells
Protocol: NF-κB Staining and −/+ Stretch pFAK397 Western Blot. GEC's were differentiated under “non-permissive” conditions for ten days, plated onto Bioflex 6-well plates (Flexcell International, Hillsborough, N.C.) coated with Collagen Type 1 (rat tail, BD Biosciences, Bedford, Mass.)/Placental Laminin (Sigma), cultured for two days in 0.5% FCS and exposed to mechanical strain for 4 hours, as previously described (Meehan et al., 2009, Kidney Int; 76: 968-976). For NF-κB Staining, cells were fixed with 2% PFA, 4% Sucrose in PBS for 10 minutes, permeabilized with 0.3% Triton, as previously described (Rao et al., 2006, Am J Pathol; 169: 32-46) incubated with αNF-κB P65 antibody at 1:50 overnight at 4° C., incubated with anti-rabbit secondary antibody at 1:750 for two hours at room temperature, gaskets were cut out, mounted on slides with […]™ (Vector Laboratories, Burlingame, Calif.) and cover slipped. For −/+ Stretch pFAK Western, protein was collected in M-PER (Thermo Scientific) as above and Western Blot run as described below.
NF-κB SN50, Inhibitor Peptide Treatment, GEC's were cultured as described above, 10 μM NF-κB SN50 Inhibitor Peptide (EMD Millipore, Billerica, Mass.) was added (and after one additional hour) exposed to 20 hours of mechanical strain and RNA collected as previously described (Meehan et al., 2009, Kidney Int; 76: 968-976).
as §1

[2] = 50 mg/Kg daily, 2 to 7 weeks, relative to vehicle
[3] = at 6 weeks of age, relative to vehicle
[4] = by 7 weeks of age, relative to vehicle

**Q.** What does the source list for CNC(=O)c1ccccc1Nc1nc(Nc2ccc(N3CCOCC3)cc2OC)ncc1Cl [TAE226]?
**A.** pFAK immunostaining in podocytes in vivo ([1]; 50 mg/Kg 1× daily by gavage, two to seven weeks of age): abolished; Glomerular mRNA expression level of MMP-9 [1, 2]: significantly reduced; Glomerular mRNA expression level of MMP-10 [1, 2]: significantly reduced; Glomerular mRNA expression level of MMP-12 [1, 2]: significantly reduced; Monocytic infiltration (CD11b immunostaining) ([1]; 7 weeks of age): remarkably robust reduction; Renal scarring (fibronectin immunostaining) ([1]; 7 weeks of age): remarkably robust reduction; GBM architecture (transmission electron microscopy) ([1]; 7 weeks of age, relative to vehicle): markedly improved; Glomerulosclerosis ([1]; Alport mice): ameliorated; Blood urea nitrogen levels [1, 3]: significant reduction; Proteinuria [1, 3]: significant reduction; Blood urea nitrogen levels [1, 4]: loose significance; Proteinuria [1, 4]: loose significance; Mesangial process invasion of glomerular capillary loops ([1]; integrin α8 / laminin α5 immunostaining, vs vehicle): amelioration; MMP-10 message levels in stretched podocytes (cultured podocytes; biomechanical stretch): reduced; MMP-12 message levels in stretched podocytes (cultured podocytes; biomechanical stretch): reduced; MMP-10 expression in podocytes (cultured podocytes; static conditions): reduced expression; MMP-12 expression in podocytes (cultured podocytes; static conditions): reduced expression
